From patent publication US20020055094A1 (priority 1996, published 2002)

Experiments:
Type in all cases: binding
influenza A NWS/G70C = tested on: influenza A NWS/G70C
[1] = tested on: NWS/G70C influenza A virus
[2] = tested on: NWS/G70C influenza A virus; remark: listed apart in the source

“5-acetamido-7-{6′-[6″-(6″′-biotinylaminocaproyl) -tri-amingcaroyl]-aminohexyl}-carbamoyloxy-4-guanidino -2,3,4,5-tetradeoxy-D-glycero-D-gaacto-non-2-enopyranosonic acid [Compound No. 26]” was tested, and the “compound concentration giving the best results” value (influenza A NWS/G70C) was 0.1 µM and the “virus amount readily detected” value (influenza A NWS/G70C) was 2.5×10^5 pfu/well.

CC(=O)N[C@H]1[C@H]([C@H](OC(=O)NCCCCCCNC(=O)NCCCCCCN)[C@H](O)CO)OC(C(=O)O)=C[C@@H]1NC(=N)N [Compound No. 8, 5-acetamido-7-[6′-(6″-aminohexylureido)-hexyl]-carbamoyloxy-4-guanidino-2,3,4,5-tetradeoxy-D-glycero-D-galacto-non-2-enopyranosonic acid] was tested, and the “signal in direct detection” value [1] was “no signal at any concentration of virus”.

For CC(=O)N[C@H]1[C@H]([C@H](OC(=O)NCCCCCCNC(=O)CNC(=O)CNC(=O)CNC(=O)CCCC[C@@H]2SC[C@@H]3NC(=O)N[C@@H]32)[C@H](O)CO)OC(C(=O)O)=C[C@@H]1NC(=N)N [Compound No. 21, 5-acetamido-7-(6′-biotinylamino-tricrlycinamido-hexy) -carbamoyloxy-4-guanidino-2,3,4,5-tetradeoxy-D-glycerQ-D-galacto-non-2-enopyranosonic acid], the minimum virus detectable [1] was “about 10^5 virus particles per well”, the “compound concentration giving the best result” value [2] was 0.01 µM and the “virus detection limit of captured complex” value [2] was ≤ 0.625×10^5 pfu.
